Experimental data published in patent US4629491A, “Oxidized sulfur derivatives of diaminophosphinyl compounds as urease inhibitors and urease inhibited urea based fertilizer compositions” (Allied Corporation, priority 1983, dated 1986).

Test system: soil urease
Assay: Soil urease inhibition efficacy test (urea remaining after incubation in soil)
Assay type: biochemical
Settings: 40 micrograms per gram soil, incubated at 25° C. for three days, run in triplicate
Experimental: Efficacy tests were conducted to evaluate the efficacy of certain representative oxidized sulfur derivatives of diaminophosphinyl compounds as urease inhibitors. The inhibition tests were run in New York (Cazenovia Silt loam, pH 7.3) and Wisconsin (Plano silt loam pH 5.3) soils. Evaluations (run in triplicate) consisted of applying 800 micrograms of the test compound in 5 mL of water and 42.8 mg of urea in 1 mL of water to 20 g of air-dry soil in a glass bottle. The bottle was capped with perforated aluminum foil and incubated at 25° C. for three days prior to extraction with 100 mL of a 2M potassium chloride solution containing 0.5 mg of phenylmercuric acetate. The extracts were then analyzed for remaining urea using an autoanalyzer. Percent inhibition was calculated as [formula] where A is urea recovered from unincubated sample (urea added to soil and immediately extracted); B is urea recovered from inhibited sample; and C is urea recovered from the control (uninhibited sample).

[1] = Cazenovia silt loam (New York) pH 7.3
[2] = Wisconsin (Plano silt loam) pH 5.3

Structure (SMILES) | % Inhibition [1] [%] | % Inhibition [2] [%]
NP(N)(=O)NS(=O)(=O)c1ccccc1 [N-(Diaminophosphinyl)benzenesulfonamide] | 91 | 23
Cc1ccc(S(=O)(=O)NP(N)(N)=O)cc1 [N-(Diaminophosphinyl)-p-toluene-sulfonamide] | 86 | 51
